pIC50: −log10 of the molar value.
Biological target: T1, Disintegrin and metalloproteinase domain-containing protein 10 (Homo sapiens, UniProt O14672)
T1 sequence (O14672 whole entry): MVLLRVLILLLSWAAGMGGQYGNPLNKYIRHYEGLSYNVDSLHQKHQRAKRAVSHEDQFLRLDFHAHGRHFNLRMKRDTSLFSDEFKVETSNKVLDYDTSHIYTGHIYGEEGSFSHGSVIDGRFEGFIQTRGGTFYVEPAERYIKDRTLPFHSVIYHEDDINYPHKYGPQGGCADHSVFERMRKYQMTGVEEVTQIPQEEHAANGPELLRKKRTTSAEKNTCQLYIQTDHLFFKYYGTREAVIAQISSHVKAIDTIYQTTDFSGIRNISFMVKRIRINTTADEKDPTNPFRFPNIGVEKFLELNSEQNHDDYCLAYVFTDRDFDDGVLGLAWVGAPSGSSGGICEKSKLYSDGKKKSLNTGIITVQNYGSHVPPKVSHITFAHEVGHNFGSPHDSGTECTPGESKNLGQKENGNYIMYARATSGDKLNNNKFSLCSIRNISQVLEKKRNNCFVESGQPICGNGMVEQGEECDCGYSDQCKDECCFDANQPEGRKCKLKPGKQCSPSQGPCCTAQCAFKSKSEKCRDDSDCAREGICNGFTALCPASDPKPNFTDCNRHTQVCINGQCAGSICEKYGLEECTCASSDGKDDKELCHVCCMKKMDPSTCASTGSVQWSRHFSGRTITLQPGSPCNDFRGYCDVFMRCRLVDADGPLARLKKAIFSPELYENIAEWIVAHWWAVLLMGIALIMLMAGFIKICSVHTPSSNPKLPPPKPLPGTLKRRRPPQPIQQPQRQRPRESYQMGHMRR
Experiment: ADAM10 inhibitors, peptide cleavage, dose response, biochemical, QFRET (AID 743254)

Row | Structure (SMILES) | pIC50
1 | O=c1[nH]c(=O)n(-c2ccc(Br)cc2)c(O)c1C=NCCN1CCCCC1 | 4.93
2 | O=C1/C(=C/c2cccs2)SC(=S)N1NS(=O)(=O)c1ccccc1 | 4.16
3 | CCCNc1c(F)c(F)c2c(C)c3ccccc3nc2c1F [1,2,4-trifluoro-9-methyl-N-propyl-3-acridinamine] | 4.16
4 | Cn1nc(-c2ccccn2)nc2c(=O)n(C)c(=O)nc1-2 [1,6-dimethyl-3-(2-pyridinyl)pyrimido[5,4-e][1,2,4]triazine-5,7(1H,6H)-dione] | 4.16
5 | N#CCSc1nc2cc(C(=O)N3CCC(C(N)=O)CC3)ccc2c2nc3ccccc3n12 [1-({6-[(cyanomethyl)thio]benzimidazo[1,2-c]quinazolin-3-yl}carbonyl)piperidine-4-carboxamide] | 4.74
6 | N#Cc1c(Cl)nc(N=NCc2ccccc2)c(Cl)c1Cl [2,4,5-tris(chloranyl)-6-[(2E)-2-(phenylmethylidene)hydrazinyl]pyridine-3-carbonitrile] | 4.16
7 | Cc1ccc(OCC(=O)Nc2nnc[nH]2)c(Br)c1 [2-(2-bromanyl-4-methyl-phenoxy)-N-(1H-1,2,4-triazol-5-yl)ethanamide] | 5.13
8 | Cc1cccc(S(=O)(=O)C(C#N)c2nc3ccccc3nc2N2CCOCC2)c1 (configuration not stated) [2-(3-methylphenyl)sulfonyl-2-(3-morpholin-4-ylquinoxalin-2-yl)acetonitrile] | 4.16
9 | Cc1cccc(Oc2nc(-c3ccccn3)nc3ccccc23)c1 [2-Pyridin-2-yl-4-m-tolyloxy-quinazoline] | 4.16
10 | CCOC(=O)Cc1csc(NC(=O)c2sc3nc4cc(C)ccc4cc3c2N)n1 [2-[2-[(3-amino-7-methyl-thieno[2,3-b]quinoline-2-carbonyl)amino]thiazol-4-yl]acetic acid ethyl ester] | 5.11
11 | O=C1c2ccccc2C(=O)N1CCCc1nc(-c2ccncc2)no1 [2-[3-(3-pyridin-4-yl-1,2,4-oxadiazol-5-yl)propyl]isoindole-1,3-dione] | 4.43
12 | Cc1cc(/C=C(/C#N)c2nc3ccccc3[nH]2)c(C)n1-c1ccccc1C(=O)O [2-[3-[(Z)-2-(1H-benzimidazol-2-yl)-2-cyanoethenyl]-2,5-dimethylpyrrol-1-yl]benzoic acid] | 4.90
13 | O=C(CC1CCCCC1)Nc1nc[nH]n1 [2-cyclohexyl-N-(1H-1,2,4-triazol-5-yl)ethanamide] | 4.16
14 | Oc1cc(N(CCc2ccccc2)C(=S)Nc2cc(Cl)ccc2Cl)c(O)n1-c1c(Cl)cccc1Cl [3-[2,5-bis(chloranyl)phenyl]-1-[1-[2,6-bis(chloranyl)phenyl]-2,5-bis(oxidanylidene)pyrrolidin-3-yl]-1-(2-phenylethyl)thiourea] | 4.16
15 | O=C(O)CCc1ccc(-c2ccccc2)n1-c1cccc(C(=O)O)c1 [3-[2-(2-carboxyethyl)-5-phenyl-1-pyrrolyl]benzoic acid] | 5.02
16 | Cc1cc(C=C2C(=O)NC(=O)N(c3ccc(F)cc3)C2=O)c(C)n1-c1cccc(C(=O)O)c1 [3-[3-[(E)-[1-(4-fluorophenyl)-2,4,6-tris(oxidanylidene)-1,3-diazinan-5-ylidene]methyl]-2,5-dimethyl-pyrrol-1-yl]benzoic acid] | 4.71
17 | COc1cc(CN=O)cc(Br)c1OCc1ccc(Cl)cc1 [3-bromo-4-[(4-chlorobenzyl)oxy]-5-methoxybenzaldehyde oxime] | 4.16
18 | C(=CN=Nc1nc2ccccc2s1)Cc1ccccc1 [3-phenylacrylaldehyde 1,3-benzothiazol-2-ylhydrazone] | 4.16
19 | Cc1ccc(NCC(=O)NN=Cc2ccc(C(=O)O)cc2)cc1 [4-[[2-[(4-methylphenyl)amino]ethanoylhydrazinylidene]methyl]benzoic acid] | 4.81

Row | Structure (SMILES) | pIC50
20 | O=c1[nH][nH]c2cc(=O)n(-c3ccc(Cl)cc3)nc12 [5-(4-chlorophenyl)-1,2-dihydropyrazolo[4,3-c]pyridazine-3,6-dione] | 5.00
21 | CSc1nsc2nc(=O)c(/C=C3\C=Nc4ccccc43)c(N)n12 [5-amino-6-[(Z)-3-indolylidenemethyl]-3-(methylthio)-[1,2,4]thiadiazolo[4,5-a]pyrimidin-7-one] | 5.13
22 | CN1C(=O)C(=CNCCCCCCCCCCC(=O)O)C(=O)N(C)C1=O [11-[[1,3-dimethyl-2,4,6-tris(oxidanylidene)-1,3-diazinan-5-ylidene]methylamino]undecanoic acid] | 4.88
23 | COc1ccc(N=C(C)c2sc3ccccc3c2O)cc1 [(2Z)-2-[1-(4-methoxyanilino)ethylidene]-1-benzothiophen-3-one] | 4.62
24 | CC(/C=C1\N=C(SCc2ccccc2Cl)SC1=O)=C\c1ccccc1 [(4Z)-2-[(2-chlorophenyl)methylsulfanyl]-4-[(E)-2-methyl-3-phenyl-prop-2-enylidene]-1,3-thiazol-5-one] | 4.92
25 | COc1ccc(N2C(=O)NC(=O)C(=Cc3c[nH]c4ccc(Br)cc34)C2=O)c(OC)c1 [(5E)-5-[(5-bromo-1H-indol-3-yl)methylene]-1-(2,4-dimethoxyphenyl)pyrimidine-2,4,6(1H,3H,5H)-trione] | 5.26
26 | O=C1OCCN1C(=O)C1=[N+](c2ccc(Br)cc2)N[C-](c2ccc(F)cc2)[C@H]1c1ccc([N+](=O)[O-])cc1 [MLS000517953] | 4.73
27 | O=C1OCCN1C(=O)C1=[N+](c2ccc(Br)cc2)N[C-](c2cccc(Cl)c2)[C@H]1c1ccc([N+](=O)[O-])cc1 [MLS000517955] | 4.67
28 | Fc1c(F)c(C(F)(F)F)c(F)c(F)c1N=NCc1cccs1 [MLS000533109] | 4.16
29 | O=C1C=CC([N+](=O)[O-])=CC1CN=Nc1ccccn1 (configuration not stated) [MLS000585015] | 4.56
30 | Cc1nnc(=O)[nH]c1N=NCC1C=CC(=O)C([N+](=O)[O-])=C1 (configuration not stated) [MLS000585487] | 4.16
31 | O=C(Cn1cncn1)NN=Cc1c2ccccc2cc2ccccc12 [N-(9-anthracenylmethylideneamino)-2-(1,2,4-triazol-1-yl)acetamide] | 4.16
32 | COc1cc(OC)c(C2C3=C(CC(C)(C)CC3=O)OC(=N)C2C#N)cc1OC (configuration not stated) [SMR000054706] | 5.06
33 | CC(C)C1Nc2ccc(S(N)(=O)=O)cc2C2C=CCC21 (configuration not stated) [SMR000070348] | 4.88
34 | COc1ccc(C=CC(=O)c2c(O)n(CCC3=CCCCC3)c(=O)[nH]c2=O)cc1OC [SMR000221147] | 4.16
35 | COc1ccc(-c2nnc(SCC(=O)Nc3cc(S(=O)(=O)N4CCCCC4)ccc3Cl)n2N)cc1 [SMR000243460] | 5.11
36 | COC(=O)c1ccc(-n2c(C)cc(CN=Nc3nc(C)cc(=O)[nH]3)c2C)cc1 [SMR000364461] | 4.16
37 | COC(=O)CCCC1=CC2=CC(=O)C(C)(OC(=O)C3CCCC3)C(=O)C2=CO1 (configuration not stated) [SMR000452591] | 5.14

Reference: BindingDB's records for doi:10.7270/Q2930RT9 (The Scripps Research Institute Molecular Screening Center, 2014)
